{"source": "patent US8362018B2", "about": "“Substituted imidazo[1,2-a]pyrazine compounds useful for the treatment of viral infections” (Biofocus DPI, Ltd., priority 2007, dated 2013)", "key": {"[1]": {"test_system": "HCV replicon", "experiment": "anti-viral assay (EC50), Table 13", "format": "cell-based", "conditions": "Hepatitis C virus, anti-viral assays", "source_text": "The ability of a compound to inhibit HCV replication can be measured in vitro or using animal models using models and assays well known to those of skill in the art (e.g. Pietschmann et al, Clin Liver Dis. 7(1)c23-43, 2003). In vitro techniques for measuring the ability of a compound to inhibit HCV replication involve using HCV or an HCV replicon. Because HCV is difficult to grow in culture, particular in vitro techniques employ an HCV replicon.\nAn HCV replicon is an RNA molecule able to autonomously replicate in a cultured cell, such as Huh7. The HCV replicon expresses the HCV derived components of the replication machinery and contains cis-elements required for replication in a cultured cell. […]"}, "[2]": {"experiment": "cytotoxicity measurement (CC50), Table 13", "format": "cell-based", "conditions": "human, Huh7 cells"}}, "data": [{"smiles": "Oc1ccc(-c2cnc3c(NCCc4ccncc4)nccn23)cc1", "note": "[Compound 2]", "values": [{"measurement": "EC50", "setting": "[1]", "value": "1 to 20", "unit": "µM"}, {"measurement": "CC50", "setting": "[2]", "value": "< 35", "unit": "µM"}]}, {"smiles": "OCc1ccc(-c2cnc3c(NCCc4ccncc4)nccn23)cc1", "note": "[Compound 3]", "values": [{"measurement": "EC50", "setting": "[1]", "value": "> 20", "unit": "µM"}, {"measurement": "CC50", "setting": "[2]", "value": "> 35", "unit": "µM"}]}, {"smiles": "CS(=O)(=O)Nc1cccc(-c2cnc3c(NCCc4ccncc4)nccn23)c1", "note": "[Compound 4]", "values": [{"measurement": "EC50", "setting": "[1]", "value": "1 to 20", "unit": "µM"}, {"measurement": "CC50", "setting": "[2]", "value": "> 35", "unit": "µM"}]}, {"smiles": "Oc1ccc(-c2cnc3c(NCc4ccncc4)nccn23)cc1", "note": "[Compound 5]", "values": [{"measurement": "EC50", "setting": "[1]", "value": "1 to 20", "unit": "µM"}, {"measurement": "CC50", "setting": "[2]", "value": "> 35", "unit": "µM"}]}, {"smiles": "Oc1cccc(-c2cnc3c(NCc4ccncc4)nccn23)c1", "note": "[Compound 6]", "values": [{"measurement": "EC50", "setting": "[1]", "value": "1 to 20", "unit": "µM"}, {"measurement": "CC50", "setting": "[2]", "value": "> 35", "unit": "µM"}]}, {"smiles": "COc1ccc(-c2cnc3c(NCc4cccnc4)nccn23)cc1OC", "note": "[Compound 7]", "values": [{"measurement": "EC50", "setting": "[1]", "value": "1 to 20", "unit": "µM"}, {"measurement": "CC50", "setting": "[2]", "value": "> 35", "unit": "µM"}]}, {"smiles": "NS(=O)(=O)c1ccc(CNc2nccn3c(-c4ccc5c(c4)OCO5)cnc23)cc1", "note": "[Compound 8]", "values": [{"measurement": "EC50", "setting": "[1]", "value": "1 to 20", "unit": "µM"}, {"measurement": "CC50", "setting": "[2]", "value": "< 35", "unit": "µM"}]}, {"smiles": "COc1ccc(-c2cnc3c(NCc4ccc(S(N)(=O)=O)cc4)nccn23)cc1OC", "note": "[Compound 9]", "values": [{"measurement": "EC50", "setting": "[1]", "value": "< 1", "unit": "µM"}, {"measurement": "CC50", "setting": "[2]", "value": "> 35", "unit": "µM"}]}, {"smiles": "NS(=O)(=O)c1ccc(CNc2nccn3c(-c4ccc(F)c(Cl)c4)cnc23)cc1", "note": "[Compound 10]", "values": [{"measurement": "EC50", "setting": "[1]", "value": "1 to 20", "unit": "µM"}, {"measurement": "CC50", "setting": "[2]", "value": "> 35", "unit": "µM"}]}, {"smiles": "NS(=O)(=O)c1ccc(CNc2nccn3c(-c4ccc(F)cc4)cnc23)cc1", "note": "[Compound 11]", "values": [{"measurement": "EC50", "setting": "[1]", "value": "1 to 20", "unit": "µM"}, {"measurement": "CC50", "setting": "[2]", "value": "> 35", "unit": "µM"}]}, {"smiles": "COc1cccc(-c2cnc3c(NCc4ccc(S(N)(=O)=O)cc4)nccn23)c1", "note": "[Compound 12]", "values": [{"measurement": "EC50", "setting": "[1]", "value": "1 to 20", "unit": "µM"}, {"measurement": "CC50", "setting": "[2]", "value": "> 35", "unit": "µM"}]}, {"smiles": "COC(=O)c1ccc(CNc2nccn3c(-c4ccc(OC)c(OC)c4)cnc23)cc1", "note": "[Compound 13]", "values": [{"measurement": "EC50", "setting": "[1]", "value": "1 to 20", "unit": "µM"}, {"measurement": "CC50", "setting": "[2]", "value": "< 35", "unit": "µM"}]}, {"smiles": "COc1ccc(-c2cnc3c(NCc4ccccc4)nccn23)cc1OC", "note": "[Compound 14]", "values": [{"measurement": "EC50", "setting": "[1]", "value": "1 to 20", "unit": "µM"}, {"measurement": "CC50", "setting": "[2]", "value": "> 35", "unit": "µM"}]}, {"smiles": "NS(=O)(=O)c1ccc(CNc2nccn3c(-c4ccc(OC(F)(F)F)cc4)cnc23)cc1", "note": "[Compound 15]", "values": [{"measurement": "EC50", "setting": "[1]", "value": "> 20", "unit": "µM"}, {"measurement": "CC50", "setting": "[2]", "value": "> 35", "unit": "µM"}]}, {"smiles": "COc1ccc(-c2cnc3c(NCc4ccc(S(N)(=O)=O)cc4)nccn23)cc1", "note": "[Compound 16]", "values": [{"measurement": "EC50", "setting": "[1]", "value": "1 to 20", "unit": "µM"}, {"measurement": "CC50", "setting": "[2]", "value": "> 35", "unit": "µM"}]}, {"smiles": "COc1ccc(-c2cnc3c(NCCc4ccc(S(N)(=O)=O)cc4)nccn23)cc1OC", "note": "[Compound 17]", "values": [{"measurement": "EC50", "setting": "[1]", "value": "1 to 20", "unit": "µM"}, {"measurement": "CC50", "setting": "[2]", "value": "< 35", "unit": "µM"}]}, {"smiles": "CC(=O)c1cccc(-c2cnc3c(NCc4ccc(S(N)(=O)=O)cc4)nccn23)c1", "note": "[Compound 18]", "values": [{"measurement": "EC50", "setting": "[1]", "value": "1 to 20", "unit": "µM"}, {"measurement": "CC50", "setting": "[2]", "value": "> 35", "unit": "µM"}]}, {"smiles": "COc1ccc(-c2cnc3c(NCc4ccc(S(C)(=O)=O)cc4)nccn23)cc1OC", "note": "[Compound 19]", "values": [{"measurement": "EC50", "setting": "[1]", "value": "1 to 20", "unit": "µM"}, {"measurement": "CC50", "setting": "[2]", "value": "> 35", "unit": "µM"}]}, {"smiles": "COc1cc(-c2cnc3c(NCc4ccc(S(N)(=O)=O)cc4)nccn23)ccc1O", "note": "[Compound 20]", "values": [{"measurement": "EC50", "setting": "[1]", "value": "< 1", "unit": "µM"}, {"measurement": "CC50", "setting": "[2]", "value": "< 35", "unit": "µM"}]}, {"smiles": "COc1ccc(-c2cnc3c(NCc4ccc(NS(C)(=O)=O)cc4)nccn23)cc1OC", "note": "[Compound 22]", "values": [{"measurement": "EC50", "setting": "[1]", "value": "1 to 20", "unit": "µM"}, {"measurement": "CC50", "setting": "[2]", "value": "> 35", "unit": "µM"}]}, {"smiles": "COc1ccc(-c2cnc3c(NCc4cnccn4)nccn23)cc1OC", "note": "[Compound 23]", "values": [{"measurement": "EC50", "setting": "[1]", "value": "1 to 20", "unit": "µM"}, {"measurement": "CC50", "setting": "[2]", "value": "> 35", "unit": "µM"}]}, {"smiles": "Oc1ccc(-c2cnc3c(NCc4ccccc4)nccn23)cc1", "note": "[Compound 24]", "values": [{"measurement": "EC50", "setting": "[1]", "value": "1 to 20", "unit": "µM"}, {"measurement": "CC50", "setting": "[2]", "value": "< 35", "unit": "µM"}]}, {"smiles": "NS(=O)(=O)c1ccc(CNc2nccn3c(-c4ccc(O)c(F)c4)cnc23)cc1", "note": "[Compound 25]", "values": [{"measurement": "EC50", "setting": "[1]", "value": "< 1", "unit": "µM"}, {"measurement": "CC50", "setting": "[2]", "value": "> 35", "unit": "µM"}]}, {"smiles": "COc1ccc(-c2cnc3c(NCCNC(C)=O)nccn23)cc1OC", "note": "[Compound 26]", "values": [{"measurement": "EC50", "setting": "[1]", "value": "1 to 20", "unit": "µM"}, {"measurement": "CC50", "setting": "[2]", "value": "> 35", "unit": "µM"}]}, {"smiles": "CC(=O)Nc1ccc(-c2cnc3c(NCc4ccc(S(N)(=O)=O)cc4)nccn23)cc1", "note": "[Compound 27]", "values": [{"measurement": "EC50", "setting": "[1]", "value": "1 to 20", "unit": "µM"}, {"measurement": "CC50", "setting": "[2]", "value": "> 35", "unit": "µM"}]}, {"smiles": "CS(=O)(=O)Nc1ccc(-c2cnc3c(NCc4ccc(S(N)(=O)=O)cc4)nccn23)cc1", "note": "[Compound 28]", "values": [{"measurement": "EC50", "setting": "[1]", "value": "> 20", "unit": "µM"}, {"measurement": "CC50", "setting": "[2]", "value": "> 35", "unit": "µM"}]}, {"smiles": "COc1ccc(-c2cnc3c(NCC4CCOCC4)nccn23)cc1OC", "note": "[Compound 29]", "values": [{"measurement": "EC50", "setting": "[1]", "value": "1 to 20", "unit": "µM"}, {"measurement": "CC50", "setting": "[2]", "value": "< 35", "unit": "µM"}]}, {"smiles": "COc1ccc(-c2cnc3c(NCCCn4ccnc4)nccn23)cc1OC", "note": "[Compound 30]", "values": [{"measurement": "EC50", "setting": "[1]", "value": "> 20", "unit": "µM"}, {"measurement": "CC50", "setting": "[2]", "value": "> 35", "unit": "µM"}]}, {"smiles": "COc1cc(-c2cnc3c(NCc4ccc(S(N)(=O)=O)cc4)nccn23)cc(Cl)c1O", "note": "[Compound 31]", "values": [{"measurement": "EC50", "setting": "[1]", "value": "1 to 20", "unit": "µM"}, {"measurement": "CC50", "setting": "[2]", "value": "> 35", "unit": "µM"}]}]}
